Measured values as given in US11952603B2, “Method for reducing or inactivating viral and microbial content in the processes for the manufacture of pancreatin” (SCIENTIFIC PROTEIN LABORATORIES, LLC, priority 2015, dated 2024).
Like-named read-outs stand apart in the source and are kept apart here.

Key:
[1] = test system: aerobic microorganisms (TAMC); assay: Total Aerobic Microbial Count (TAMC) of porcine pancreas glands after PAA treatment
Protocol: For the preparation of pancreatin, 3 kg thawed whole porcine pancreas glands and 3 kg of porcine pancreas glands cut into approximately 2-inch strips were submerged in two different concentrations of PAA, 500 ppm and 2000 ppm for 10 and 15 minutes at room temperature (18-22° C.). Treated glands were rinsed with process water and placed into a sterile sample bag and stored at −20° C. for freezing not less than 12 hours. A total of 6 samples were tested per run. The preparation was executed 2 times. […] Whole gland (A)—500 ppm; • 2. Whole gland (B)—2000 ppm; • 3. Strip gland (A)—500 ppm; • 4. Strip gland (B)—2000 ppm; • 5. Whole gland (C)—No treatment-Control; • 6. Strip gland (C)—No treatment-Control. For all result see Tables 1 and 2.
The strip glands remained consistent.
For the preparation of pancreatin, 3 kg thawed whole glands and 3 kg of milled gland were submerged in two different concentrations of PAA, 500 ppm and 2000 ppm for 10 and 15 minutes at room temperature (18-22° C.). Treated glands were rinsed with purified water and placed into a sterile sample bag and stored at −20° C. for freezing not less than 12 hours. A total of 6 samples were tested per run. The preparation was executed 2 times. Milled glands were difficult to process due to slurry being formed after PAA treatment. […] Whole gland (A)—500 ppm; • 2. Whole gland (B)—2000 ppm; • 3. Milled gland (A)—500 ppm; • 4. Milled gland (B)—2000 ppm; • 5. Whole gland (C)—No treatment-Control; • 6. Milled gland (C)—No treatment-Control. For all results see table 3 and 4.
The TAMC results for both the whole glands and milled before PAA treatments were similar with 1400 and 1100 CFU/g. After 500 ppm and 2000 ppm PAA treatment, the TAMC results for the treated whole glands were exactly the same, 10 CFU/g. The milled glands were not tested after PAA treatment. See results in table 3.

[2] = test system: Gram-positive and Gram negative bacteria, fungi and yeasts; settings: at concentrations of <100 ppm; cited from earlier work
[3] = test system: virus; assay: Transmission electron microscopy of gland tissue and pancreatin powder for virus; settings: 20,000 ppm PAA for 30 minutes
Protocol: Electron Microscopic Study: Referring to FIGS. 4A-4D, transmission electron microscopy (TEM) and scanning electron microscopy (SEM) were performed to visualize the presence of bacteria and viruses on surface of pancreas gland tissue and pancreatin powder treated with differing concentration of PAA and were compared to non-treated (control) samples.
Pancreas gland tissues treated with PAA and untreated samples as well as resulting pancreatin powder produced with PAA treatment were analyzed with TEM and SEM. For SEM samples were coated with an ultrathin coating of electrically conducting material, deposited on the sample by low-vacuum sputter coating evaporation. A conductive material in current coating used was gold to observe bacteria and viruses. A ZEISS LEO-1530 DSM scanning electron microscope was used to produce the images of FIGS. 4A and 4B. […] (scale bar is 2 μm). […] Viruses are very small in size (15 to 100 nm) and were not possible to observe in SEM. For TEM the pancreas gland tissue and pancreatin powder sample treated with 20,000 ppm PAA for 30 minutes and control samples were stained with 2% uranyl acetate (aq). A Model H-7600 HITACHI transmission electron microscope, Version 3.01, was used to produces the images of FIGS. 4C and 4D. Three TEM slides of each treatment were observed. Each TEM slide had 400 grids to observe. A minimum of 10-15 grids per slide were observed.

[4] = test system: viruses; settings: cited from earlier work
[5] = test system: Encephalomycarditis Virus (EMC); type: cell-based, Encephalomyocarditis virus; settings: 10,000 ppm PAA
[6] = test system: Murine Minute Virus (MMV); assay: Viral clearance of spiked MMV on PAA-treated glands, TCID50 endpoint assay; type: cell-based; settings: 10,000 ppm PAA, 30 min sample vs Recovery Control 0 minute
[7] = test system: Porcine circovirus type 2 (PCV 2); assay: Infectious PCV-2 titer by cell based in vitro assay using PK-13 cells (Large Volume Plating, interference assay); settings: 500 and 2000 ppm, endogenous virus
[8] = test system: vegetative bacteria; settings: within 1 min at 25° C., 1.3 mmol/L of PAA; cited from earlier work
[9] = Strip Gland, Run # 1, Example 1
[10] = Whole Gland, Run # 1, Example 1
[11] = Whole Gland, Run # 2, Example 1

CC(=O)OO [PAA, Peracetic acid]
TAMC After Treatment at 500 ppm [1, 9]: 130 CFU/g
TAMC After Treatment at 2000 ppm [1, 9]: 45 CFU/g
TAMC After 500 ppm PAA Treatment ([1]; Whole Gland, Example 2): 10 CFU/g
TAMC After 2000 ppm PAA Treatment ([1]; Whole Gland, Example 2): 10 CFU/g
TAMC After Treatment at 500 ppm [1, 10]: 90 CFU/g
TAMC After Treatment at 2000 ppm [1, 10]: 50 CFU/g
TAMC After Treatment at 500 ppm [1, 11]: 30 CFU/g
TAMC After Treatment at 2000 ppm [1, 11]: 10 CFU/g
time to inactivate [2]: less than 5 minutes
virus in pancreas gland tissue (TEM) [3]: No virus was observed
dosage range for viruses [4]: 100-40,000 ppm
EMC reduction factor ([5]; at 15 minutes): about 1.75 log10
EMC reduction factor ([5]; calculated using the 30 min sample): about 0.8 log10
MMV reduction factor [6]: 3.0±0.9 Log10
effect of PAA surface treatment in PCV-2 infectivity test [7]: no discernable effect
reduction factor in the number of vegetative bacteria [8]: 10^6
